# Target: T1, USP25 (USP25-His6, Boston Biochem E-546) (Homo sapiens, UniProt Q9UHP3)
# T1 construct: His6; purchased Boston Biochem E-546
# T1 sequence (Q9UHP3 1-1055): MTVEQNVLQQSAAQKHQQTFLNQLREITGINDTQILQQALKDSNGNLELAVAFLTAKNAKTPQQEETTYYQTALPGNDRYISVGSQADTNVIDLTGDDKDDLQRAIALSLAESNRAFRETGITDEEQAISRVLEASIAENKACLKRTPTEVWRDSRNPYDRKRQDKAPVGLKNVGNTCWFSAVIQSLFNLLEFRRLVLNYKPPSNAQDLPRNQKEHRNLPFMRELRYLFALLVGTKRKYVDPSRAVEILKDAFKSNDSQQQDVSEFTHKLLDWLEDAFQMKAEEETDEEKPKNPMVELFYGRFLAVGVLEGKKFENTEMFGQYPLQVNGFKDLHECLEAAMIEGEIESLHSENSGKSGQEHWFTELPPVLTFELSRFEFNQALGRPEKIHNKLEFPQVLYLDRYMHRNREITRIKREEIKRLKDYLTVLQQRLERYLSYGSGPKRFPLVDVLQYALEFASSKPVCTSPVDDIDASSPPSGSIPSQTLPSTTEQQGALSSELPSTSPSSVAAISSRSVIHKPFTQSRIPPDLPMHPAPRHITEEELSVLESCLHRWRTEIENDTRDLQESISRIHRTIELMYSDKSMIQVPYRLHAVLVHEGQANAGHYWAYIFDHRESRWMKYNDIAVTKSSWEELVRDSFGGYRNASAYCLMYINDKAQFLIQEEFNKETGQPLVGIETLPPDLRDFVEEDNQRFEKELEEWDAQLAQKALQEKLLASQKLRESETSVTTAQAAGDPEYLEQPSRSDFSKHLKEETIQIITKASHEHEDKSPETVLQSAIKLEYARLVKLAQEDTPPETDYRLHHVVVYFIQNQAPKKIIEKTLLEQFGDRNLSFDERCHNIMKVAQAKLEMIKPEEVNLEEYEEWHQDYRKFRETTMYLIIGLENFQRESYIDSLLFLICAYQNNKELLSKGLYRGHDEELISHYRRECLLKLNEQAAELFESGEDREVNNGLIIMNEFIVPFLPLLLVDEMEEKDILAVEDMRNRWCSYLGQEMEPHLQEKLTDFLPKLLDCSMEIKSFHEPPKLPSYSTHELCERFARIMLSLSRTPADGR
# Assay: Ubiquitin-Rhodamine 110 Assay for USP25 Activity, Example A-2
# Assay type: biochemical
# Conditions: Ubiquitin-Rhodamine 110 assay, Example A-2; read-out: USP25 A-2 IC50 range
# Outline: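 Cleavage of ubiquitin-rhodamine 110 (25 nM, well below Km) by His-tagged USP25 at 75 pM is measured fluorimetrically after 45 min at room temperature and acid quench. Inhibitors are preincubated with enzyme for 30 minutes. IC50 values come from four-parameter logistic curve fitting.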
row,Compound,IC50 [µM]
1,"Cc1ccc2c(N)c(C(=O)N[C@H]3CCc4nc(N5C[C@@H](N)[C@@H](C(F)F)C5)ccc4C3)sc2n1 [Example 346, 3-amino-N-[(6S)-2-[(3S,4S)-3-amino-4-(difluoromethyl)pyrrolidin-1-yl]-5,6,7,8-tetrahydroquinolin-6-yl]-6-methylthieno[2,3-b]pyridine-2-carboxamide]",0.2 to 2
2,"Cc1ccc2c(N)c(C(=O)N[C@H]3CCc4nc(N5C[C@H](C(F)F)[C@@H](N)C5)ccc4C3)sc2n1 [Example 347, 3-amino-N-[(6S)-2-[(3R,4S)-3-amino-4-(difluoromethyl)pyrrolidin-1-yl]-5,6,7,8-tetrahydroquinolin-6-yl]-6-methylthieno[2,3-b]pyridine-2-carboxamide]",0.2 to 2
3,"COC[C@H]1CN(c2ccc3c(n2)OC[C@H](NC(=O)c2sc4nc(C)cc(C)c4c2N)C3)C[C@H]1N [Example 349, 3-amino-N-[(3R)-7-[(3S,4S)-3-amino-4-(methoxymethyl)pyrrolidin-1-yl]-2H,3H,4H-pyrano[2,3-b]pyridin-3-yl]-4,6-dimethylthieno[2,3-b]pyridine-2-carboxamide]",0.2 to 2
4,"CN[C@H]1CN(c2ccc3c(c2)OC[C@H](NC(=O)c2sc4nc(C)ccc4c2N)C3)C[C@@H]1O [Example 350, 3-amino-N-[(3R)-7-[(3S,4S)-3-hydroxy-4-(methylamino)pyrrolidin-1-yl]-3,4-dihydro-2H-1-benzopyran-3-yl]-6-methylthieno[2,3-b]pyridine-2-carboxamide]",0.2 to 2
5,"CCn1ccc2cc(C(=O)N[C@H]3CCc4nc(N5C[C@H](OC)[C@@H](N)C5)ccc4C3)cnc21 [Example 353, N-[(6S)-2-[(3S,4S)-3-amino-4-methoxypyrrolidin-1-yl]-5,6,7,8-tetrahydroquinolin-6-yl]-1-ethyl-1H-pyrrolo[2,3-b]pyridine-5-carboxamide]",> 2
6,"Cc1cc(C)c2c(N)c(C(=O)N[C@H]3CCc4nc(N5CC6CCC(C5)N6)ccc4C3)sc2n1 [Example 354, 3-amino-N-[(6S)-2-{3,8-diazabicyclo[3.2.1]octan-3-yl}-5,6,7,8-tetrahydroquinolin-6-yl]-4,6-dimethylthieno[2,3-b]pyridine-2-carboxamide]",0.2 to 2
7,"CCn1cc(Cl)c2cc(C(=O)N[C@H]3COc4c(F)c(N5CC6CCC(C5)N6)cc(F)c4C3)nnc21 [Example 355, 5-chloro-N-[(3R)-7-{3,8-diazabicyclo[3.2.1]octan-3-yl}-5,8-difluoro-3,4-dihydro-2H-1-benzopyran-3-yl]-7-ethyl-7H-pyrrolo[2,3-c]pyridazine-3-carboxamide]",0.2 to 2
8,"CCn1cc(Cl)c2cc(C(=O)N[C@H]3COc4c(C#N)c(N5CC6CCC(C5)N6)cc(F)c4C3)nnc21 [Example 356, 5-chloro-N-[(3R)-8-cyano-7-{3,8-diazabicyclo[3.2.1]octan-3-yl}-5-fluoro-3,4-dihydro-2H-1-benzopyran-3-yl]-7-ethyl-7H-pyrrolo[2,3-c]pyridazine-3-carboxamide]",0.2 to 2
9,"Cc1ccc2c(N)c(C(=O)N[C@H]3CCc4nc(N5C[C@H](N)[C@H](OC(C)(F)F)C5)ccc4C3)sc2n1 [Example 357, 3-amino-N-[(6S)-2-[(3S,4R)-3-amino-4-(1,1-difluoroethoxy)pyrrolidin-1-yl]-5,6,7,8-tetrahydroquinolin-6-yl]-6-methylthieno[2,3-b]pyridine-2-carboxamide]",0.2 to 2
10,"Cc1ccc2c(N)c(C(=O)N[C@H]3CCc4nc(N5C[C@@H](N)[C@@H](OC(C)(F)F)C5)ccc4C3)sc2n1 [Example 358, 3-amino-N-[(6S)-2-[(3R,4S)-3-amino-4-(1,1-difluoroethoxy)pyrrolidin-1-yl]-5,6,7,8-tetrahydroquinolin-6-yl]-6-methylthieno[2,3-b]pyridine-2-carboxamide]",> 2
11,"Cc1ccc2c(N)c(C(=O)N[C@H]3CCc4nc(N5C[C@H](N)[C@@H](C(F)(F)F)C5)ccc4C3)sc2n1 [Example 363, 3-amino-N-[(6S)-2-[(3R,4S)-3-amino-4-(trifluoromethyl)pyrrolidin-1-yl]-5,6,7,8-tetrahydroquinolin-6-yl]-6-methylthieno[2,3-b]pyridine-2-carboxamide]",0.2 to 2
12,"Cc1cnc2c(N)c(C(=O)N[C@H]3CCc4nc(N5C[C@H](N)C6(COC6)C5)ccc4C3)sc2n1 [Example 365, 7-amino-N-[(6S)-2-[(8R)-8-amino-2-oxa-6-azaspiro[3.4]octan-6-yl]-5,6,7,8-tetrahydroquinolin-6-yl]-3-methylthieno[2,3-b]pyrazine-6-carboxamide]",0.2 to 2
13,"Cc1cnc2c(N)c(C(=O)N[C@H]3CCc4nc(N5C[C@@H](N)C6(COC6)C5)ccc4C3)sc2n1 [Example 366, 7-amino-N-[(6S)-2-[(8S)-8-amino-2-oxa-6-azaspiro[3.4]octan-6-yl]-5,6,7,8-tetrahydroquinolin-6-yl]-3-methylthieno[2,3-b]pyrazine-6-carboxamide]",> 2
14,"Cc1ccc2c(N)c(C(=O)N[C@H]3COc4cc(N5CC[C@H](N)C5)ccc4C3)sc2n1 [Example 369, 3-amino-N-[(3R)-7-[(3S)-3-aminopyrrolidin-1-yl]-3,4-dihydro-2H-1-benzopyran-3-yl]-6-methylthieno[2,3-b]pyridine-2-carboxamide]",0.05 to 0.2
15,"Cc1ccc2c(N)c(C(=O)N[C@H]3CCc4nc(N5C[C@H](N)[C@]6(CCCO6)C5)ccc4C3)sc2n1 [Example 390, 3-amino-N-[(6S)-2-[(5S,9S)-9-amino-1-oxa-7-azaspiro[4.4]nonan-7-yl]-5,6,7,8-tetrahydroquinolin-6-yl]-6-methylthieno[2,3-b]pyridine-2-carboxamide]",> 2
16,"Cc1ccc2c(N)c(C(=O)N[C@H]3CCc4nc(N5C[C@@H](N)[C@]6(CCCO6)C5)ccc4C3)sc2n1 [Example 391, 3-amino-N-[(6S)-2-[(5S,9R)-9-amino-1-oxa-7-azaspiro[4.4]nonan-7-yl]-5,6,7,8-tetrahydroquinolin-6-yl]-6-methylthieno[2,3-b]pyridine-2-carboxamide]",0.2 to 2
17,"Cc1ccc2c(N)c(C(=O)N[C@H]3CCc4nc(N5C[C@@H](N)[C@@]6(CCCO6)C5)ccc4C3)sc2n1 [Example 392, 3-amino-N-[(6S)-2-[(5R,9R)-9-amino-1-oxa-7-azaspiro[4.4]nonan-7-yl]-5,6,7,8-tetrahydroquinolin-6-yl]-6-methylthieno[2,3-b]pyridine-2-carboxamide]",> 2
18,"Cc1ccc2c(N)c(C(=O)N[C@H]3CCc4nc(N5C[C@H](N)[C@@]6(CCCO6)C5)ccc4C3)sc2n1 [Example 393, 3-amino-N-[(6S)-2-[(5R,9S)-9-amino-1-oxa-7-azaspiro[4.4]nonan-7-yl]-5,6,7,8-tetrahydroquinolin-6-yl]-6-methylthieno[2,3-b]pyridine-2-carboxamide]",> 2
19,"Cc1ccc2c(N)c(C(=O)N[C@H]3COc4cc(N5CC6CNC[C@](C)(C5)O6)cc(F)c4C3)sc2n1 [Example 413, 3-amino-N-[(3R)-5-fluoro-7-[(1R)-1-methyl-9-oxa-3,7-diazabicyclo[3.3.1]nonan-3-yl]-3,4-dihydro-2H-1-benzopyran-3-yl]-6-methylthieno[2,3-b]pyridine-2-carboxamide]",0.2 to 2
20,"Cc1ccc2c(N)c(C(=O)N[C@H]3COc4cc(N5CC6CNC[C@@](C)(C5)O6)cc(F)c4C3)sc2n1 [Example 414, 3-amino-N-[(3R)-5-fluoro-7-[(1S)-1-methyl-9-oxa-3,7-diazabicyclo[3.3.1]nonan-3-yl]-3,4-dihydro-2H-1-benzopyran-3-yl]-6-methylthieno[2,3-b]pyridine-2-carboxamide]",0.2 to 2
21,"CO[C@@H]1CN(c2cc3c(c(F)c2F)C[C@@H](NC(=O)c2sc4nc(C)ccc4c2N)CO3)C[C@H]1N [Example 415, 3-amino-N-[(3R)-7-[(3R,4R)-3-amino-4-methoxypyrrolidin-1-yl]-5,6-difluoro-3,4-dihydro-2H-1-benzopyran-3-yl]-6-methylthieno[2,3-b]pyridine-2-carboxamide]",0.2 to 2
22,"CO[C@H]1CN(c2cc3c(c(F)c2F)C[C@@H](NC(=O)c2sc4nc(C)ccc4c2N)CO3)C[C@@H]1N [Example 416, 3-amino-N-[(3R)-7-[(3S,4S)-3-amino-4-methoxpyrrolidin-1-yl]-5,6-difluoro-3,4-dihydro-2H-1-benzopyran-3-yl]-6-methylthieno[2,3-b]pyridine-2-carboxamide]",0.2 to 2

# Source: US11524966B1 (Valo Early Discovery, Inc., priority 2017, dated 2022)
